Target: Cannabinoid receptor 2 (Homo sapiens, UniProt P34972)
Assay: Radioligand Binding Assay
Description: The affinity of the compounds of the invention for cannabinoid CB1 receptors was determined using recommended amounts of membrane preparations (PerkinElmer) of human embryonic kidney (HEK) cells expressing the human CNR1 or CNR2 receptors in conjunction with 1.5 or 2.6 nM [3H]-CP-55,940 (Perkin Elmer) as radioligand, respectively. Binding was performed in binding buffer (50 mM Tris, 5 mM MgCl2, 2.5 mM EDTA, and 0.5% (wt/vol) fatty acid free BSA, pH 7.4 for CB1 receptor and 50 mM Tris, 5 mM MgCl2, 2.5 mM EGTA, and 0.1% (wt/vol) fatty acid free BSA, pH 7.4 for CB2 receptor) in a total volume of 0.2 ml for 1 h at 30° C. shaking. The reaction was terminated by rapid filtration through microfiltration plates coated with 0.5% polyethylenimine (UniFilter GF/B filter plate; Packard). Bound radioactivity was analyzed for Ki using nonlinear regression analysis (Activity Base, ID Business Solution, Limited), with the Kd values for [3H]CP55,940 determined from saturation experiments. The compounds of formula (I) show an excellent affinity for the CB2 receptor.

Chain of Cannabinoid receptor 2 (P34972 whole entry): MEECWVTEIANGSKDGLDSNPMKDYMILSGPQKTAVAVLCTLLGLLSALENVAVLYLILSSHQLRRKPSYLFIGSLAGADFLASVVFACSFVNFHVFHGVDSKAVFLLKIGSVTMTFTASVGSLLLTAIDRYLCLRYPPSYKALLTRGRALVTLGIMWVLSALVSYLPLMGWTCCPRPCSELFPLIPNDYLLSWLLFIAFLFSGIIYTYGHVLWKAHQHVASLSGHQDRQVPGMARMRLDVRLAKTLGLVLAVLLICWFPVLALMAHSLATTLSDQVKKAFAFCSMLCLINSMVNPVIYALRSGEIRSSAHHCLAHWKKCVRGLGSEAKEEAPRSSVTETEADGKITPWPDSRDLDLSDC

## CCOC(=O)C(CC)(CC)NC(=O)c1ccc(N2CC(OCF)C2)c(OCC2CC2)n1 [US12180196, Example 3]
  Ki: 14 nM
